# Laboratory results from PubChem BioAssay AID602267 (Broad Institute, 2012).
# Active and inactive are the calls of the source.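 The calls were made as follows: active = signal falls with dose and the fitted half-maximal concentration is at or below twice the top valid tested dose; inconclusive = flat curve with 30 to 70% inhibition, or poor fit; inactive = wrong direction, flat within 30%, or potency beyond limit.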
# Target: Golgi-associated PDZ and coiled-coil motif-containing protein (Homo sapiens) (UniProt Q9HD26)
# Assay: CAL PDZ domain peptide-binding inhibitors, dose response, biochemical, fluorescence polarization, untagged CAL PDZ, cherry-pick (AID 602267)
# Conditions: purified CAL PDZ, TMR-peptide fluorescence polarization, 1 h
row,SMILES,AC50
1,COc1ccc2noc3c2c1C(=O)c1ccccc1-3,1780 nM

# Same assay, conditions: purified CAL PDZ, TMR-peptide fluorescence polarization, 1 h; at 16 µM (top of the series)
row,SMILES,"activity change, negative = inhibition"
1,CCOC(=O)C1(Cc2cccc(Cl)c2)CCCN(C(=O)c2cccc(C)n2)C1 (configuration not stated),inactive
2,COc1ccc(N2CCN(C(=O)c3cccc4nc(C)oc34)CC2)cc1,inactive

# Same assay, conditions: purified CAL PDZ, TMR-peptide fluorescence polarization, 1 h; at 50 µM (top of the series)
row,SMILES,"activity change, negative = inhibition"
1,O=C(c1cccs1)N1CCN(C(=O)N2CCOCC2)CC1,inactive
2,CC(C)CNC(=O)COC(=O)CCC(=O)c1ccc(Cl)cc1,inactive
3,O=C(CSc1nc2c(sc3ccccc32)c(=O)n1Cc1ccccc1)NCC1CCCO1 (configuration not stated),inactive
4,CCOc1ccc(S(=O)(=O)N2CCCCC2)c(C)c1C,inactive
5,C/C(CC(=O)Nc1ccc(C)c(Cl)c1)=N\NC(=O)Cc1cnc(N)s1,inactive
6,O=C(NCC(=O)N1CCC(N2CCCCC2)CC1)C1CCCCC1,inactive
7,O=C(C=Cc1ccccc1)c1cc(Br)ccc1O,inactive
8,CC(C)CNC(=O)CC1Nc2ccccc2NC1=O (configuration not stated),inactive
9,O=C(NC1(C(F)(F)F)NC(=O)N(C2CCCCC2)C1=O)C1CC1 (configuration not stated),inactive
10,COc1ccc(Br)c(C(=O)NC2CCCC2)c1,inactive
11,Cc1ccc(S(=O)(=O)N2CCN(C(=O)N(C)C)CC2)cc1,inactive
12,COc1ccc(CSc2ncnc3sccc23)cc1F,inactive
13,CC(CN1CCCC1)OC(=O)C(c1ccccc1)c1ccccc1 (configuration not stated),inactive
14,CCC(=O)c1ccc(N2CCC(C)CC2)c(F)c1,inactive
15,COc1ccc(NC(=O)c2ccc3c(c2)NC(=O)CO3)cc1OC,inactive
16,CCc1nc(SCC(=O)c2ccccc2)c2c(=O)n(C)c(=O)n(C)c2n1,inactive
17,CS(=O)(=O)c1ccc2nc(NC(=O)CN3C(=O)C4CC=CCC4C3=O)sc2c1 (configuration not stated),inactive
18,COc1ccc2ccn(S(=O)(=O)c3ccccc3)c2c1,inactive
19,CN(c1nc(-c2ccc(Br)cc2)cs1)C1CCS(=O)(=O)C1 (configuration not stated),inactive
20,Cc1cccc(C)c1NC(=S)NC(=O)c1ccc(Br)o1,inactive
21,CC(C)c1ccc(CNC(=O)C(=O)NCCCn2ccnc2)cc1,inactive
22,CCCn1nnnc1NCc1cc(Br)ccc1OC,inactive
23,Cc1nc2ccc(Br)cn2c1C(=O)N/N=C\c1ccc(C(C)C)cc1,inactive
24,c1ccc(C(c2ccccc2)c2cccnc2)cc1,inactive
25,c1ccc(C(Nc2cccnc2)c2ccccc2)cc1,inactive

row,SMILES,"activity change, negative = inhibition"
1,O=C(NNC(=O)c1c(F)cccc1F)c1sccc1-n1cccc1,inactive
2,CSC1=NP(=S)(SC)N2CCCC2=C1C#N (configuration not stated),inactive
3,O=C(c1cccc(Oc2c(Cl)cccc2[N+](=O)[O-])c1)N1CCOCC1,inactive
4,O=C1OC(c2ccccc2)(c2ccccc2)c2ccccc21,inactive
5,Cc1ccc2nc3c(nc2c1)-c1ccccc1C3=O,inactive
6,CC(=O)NC1C(=O)N(CCN2CCOCC2)c2ccc(Cl)cc21 (configuration not stated),inactive
7,COc1ccc(CN2CCCC(N3CCN(c4cccc(Cl)c4)CC3)C2)cc1OC (configuration not stated),inactive
8,Cc1nn(C)c(C)c1S(=O)(=O)N1CCC(CO)(CC2CCCCO2)CC1 (configuration not stated),inactive
9,COc1cc(/C=C2\C(=O)NC(=O)N(c3ccccc3)C2=O)c([N+](=O)[O-])cc1OC,inactive
10,Cc1ccc(-c2[nH]c3ccccc3c2SCCN)cc1,inactive
11,O=C(CSc1nccc(=O)[nH]1)Nc1ccc(Oc2ccccc2)cc1,inactive
12,Cc1ccccc1-n1c(C)c(C#N)c(=O)c(-[n+]2ccccc2)c1[S-],inactive
13,C/C(=C/c1ccccc1)C(=O)N1CCN(c2ccccc2)CC1,inactive
14,CCc1noc(C)c1C(=O)N1CCCC(CCC(=O)NCc2ccc(F)c(F)c2)C1 (configuration not stated),inactive
15,COc1ccc(CC(=O)NNC(=O)CCc2ccccc2)cc1OC,inactive
16,CCC(C(=O)NN1C(=O)c2ccccc2C1=O)c1ccccc1 (configuration not stated),inactive
17,O=C(NCc1ccccn1)c1ccc(NS(=O)(=O)c2ccccc2)cc1,inactive
18,CCC(=O)c1cn(CC(=O)Nc2cccc(C)c2C)c2ccccc12,inactive
19,O=[N+]([O-])c1ccc(N/N=C/c2cccnc2)cc1,inactive
20,CCOCCCNC(=S)N1CCN(c2nc(-c3ccccc3)cs2)CC1,inactive
21,Cc1cccc(-n2nc(C)c3c2NC2=C(C(=O)CCC2)C3c2ccccn2)c1 (configuration not stated),inactive
22,CCOC(=O)CCC(=O)Nc1ccc(S(=O)(=O)N2CCC(C)CC2)cc1,inactive
23,O=C(NCc1ccccc1)c1cc2ccc(O)cc2oc1=O,inactive
24,CCN1CCN(S(=O)(=O)c2ccc(OC)c3ccccc23)CC1,inactive
25,COc1cccc(-c2cccc(NC(=O)C3CCN(Cc4ccc(CO)o4)CC3)c2)c1,inactive

row,SMILES,"activity change, negative = inhibition"
1,COc1ccc(C(=O)Nc2nccs2)cc1,inactive
2,O=C(c1cc2cc([N+](=O)[O-])ccc2oc1=O)N1CCN(C2CCCCC2)CC1,inactive
3,O=C(Nc1cc(Cl)ccc1N1CCOCC1)c1ccc2c(c1)OCCO2,inactive
4,Cc1cc(C(=O)Nc2ccccc2Cl)c2ccccc2n1,inactive
5,Cc1ccc(NC(=O)CN(C)C(=S)NC2CC2)cc1,inactive
6,Cc1ccc2nc(NC(=O)COC(=O)c3ccncc3)sc2c1,inactive
7,Cc1cccc(NS(=O)(=O)Cc2ccccc2)c1C,inactive
8,Nc1ccc(N(CCO)CCO)cc1,inactive
9,CC(=O)N1CCN(c2ccc(NC(=O)c3cccc(Cl)c3Cl)cc2)CC1,inactive
10,CCOc1ccc(C(=O)NCC(=O)N2CCC(C)CC2)cc1OCC,inactive
11,COc1ccc(CN(C)C(C)C(=O)NC2CCCc3ccccc32)cc1 (configuration not stated),inactive
12,COc1ccc(C(CNC(=O)COc2ccccc2-c2ccccc2)N2CCOCC2)cc1 (configuration not stated),inactive
13,CCCCNC(=S)NNc1c(Cl)cc(Cl)cc1Cl,inactive
14,Cc1ccnc2nc(C(=O)OCCOc3ccc(F)cc3)nn12,inactive
15,Cc1cc(SCC(=O)OCC(=O)c2c(N)n(C)c(=O)n(C)c2=O)c(C)cc1Br,inactive
16,O=C(NNS(=O)(=O)c1ccc(Cl)cc1)c1cccs1,inactive
17,COc1ccc(C(=O)N2CCCc3ccccc32)cc1Br,inactive
18,O=C(NCCc1cnc[nH]1)c1cccs1,inactive
19,O=C(COC(=O)c1cccnc1Cl)Nc1ccc2c(c1)OCO2,inactive
20,S=C(NCCc1ccccc1)NC1CCC(NC(=S)NCCc2ccccc2)CC1 (configuration not stated),inactive
21,Cc1ccccc1CN(C)C(C)C(=O)Nc1ccccc1F (configuration not stated),inactive
22,Cc1sc2ncn(CC(=O)NCCCC(=O)N3CCN(Cc4ccc5c(c4)OCO5)CC3)c(=O)c2c1C,inactive
23,COc1ccc(CC(=O)N2CCC(CCC(=O)Nc3ccccc3)CC2)cc1,inactive
24,COCCN(Cc1nc(C(c2ccccc2)c2ccccc2)no1)C(C)C,inactive
